Laboratory results: patent publication US6949543B2, “Amide derivative” (Yamanouchi Pharmaceutical Co., Ltd., priority 2000, dated 2005)

system: VZV (strain CaQu); assay: Anti-VZV activity assay (plaque reduction in HEF cells); format: cell-based, varicella zoster virus; conditions: Human alphaherpesvirus 3, 3 to 4 days culture, plaque count, read-out: EC50 (concentration to inhibit 50% of the plaques)
Protocol: This assay was carried out in accordance with the method described by Shigeta S. (The Journal of Infectious Diseases, 147, 3, 576-584 (1983). Illustratively, HEF cells were seeded a 96 well microtiter plate at 10,000 cells per well using a propagation medium and cultured at 37° C. for 4 days in an atmosphere of 5% CO2 until monolayers were formed. After washing the cells with a maintaining medium, the cells were inoculated with 100 μl/well of VZV (strain CaQu) which had been diluted to 20 to 30 pfu/100 μl with the maintaining medium. The plate was centrifuged at 2,000 rpm for 20 minutes at room temperature and then incubated at 37° C. for 3 hours in an atmosphere of 5% CO2 to infect with VZV. After washing three times with 100 μl/well of the maintaining medium, 100 μl of each test drug diluted to an appropriate concentration with the maintaining medium was added to each well. After culturing the cells at 37° C. for 3 to 4 days in an atmosphere of 5% CO2, the cells were fixed with 100 μl/well of 10% formalin/PBS for 2 to 3 hours. After discarding the fixing solution and culture supernatant and subsequently washing the plate with water, a staining solution (0.025% Crystal Violet) was added in 50 μl/well to carry out 2 to 3 minutes for staining, and then the plate was washed with water and dried at 37° C. The HEF cells infected with VZV cause cell death, and plaques comprising dead cells are formed in the monolayer HEF cells. The number of plaques was counted under a microscope, and EC50 value of the test drug was calculated as a concentration to inhibit 50% of the plaques.

Compound	EC50 [nM]
Nc1nc(-c2ccc(NC(=O)CN(C(=O)C3CCCCC3)c3ccc4ncsc4c3)cc2)cs1 [Example 114]	70
Nc1nc(-c2ccc(NC(=O)CN(C(=O)c3ccncn3)c3ccc4scnc4c3)cc2)cs1 [Example 118]	59
Nc1nc(-c2ccc(NC(=O)CN(C(=O)c3ccc(F)nc3)c3ccc4scnc4c3)cc2)cs1 [Example 117]	65
Nc1nc(-c2ccc(NC(=O)CN(C(=O)C3CCOCC3)c3ccc4scnc4c3)cc2)cs1 [Example 110]	49
Nc1nc(-c2ccc(NC(=O)CN(C(=O)C3CCSc4ccccc43)c3ccc4scnc4c3)cc2)cs1 (stereo not shown) [Example 113]	40
Nc1nc2c(ncn2COCCO)c(=O)[nH]1 [ACV, Acyclovir, reference compound]	4300

Now those with a lower EC50, led by results:

EC50 [nM]	Compound
33	Nc1nc(-c2ccc(NC(=O)CN(C(=O)C3CCC(F)(F)CC3)c3ccc4scnc4c3)cc2)cs1 [Example 116]
25	Nc1nc(-c2ccc(NC(=O)CN(C(=O)c3ccncc3)c3ccc4scnc4c3)cc2)cs1 [Example 108]
28	Nc1nc(-c2ccc(NC(=O)CN(C(=O)C3CC=C(F)CC3)c3ccc4scnc4c3)cc2)cs1 (stereo not shown) [Example 115]
26	Nc1nc(-c2ccc(NC(=O)CN(C(=O)C3CCSCC3)c3ccc4scnc4c3)cc2)cs1 [Example 111]
